Source: patent publication US9518107B2, “Pharmaceutical compositions containing polypeptides derived from α-1 antitrypsin and methods of use thereof” (YISSUM RESEARCH DEVELOPMENT COMPANY OF THE HEBREW …, priority 2010, dated 2016)

Key:
[1] = system: Male CD1 mice; experiment: Carrageenan-induced hind paw swelling; format: in vivo; settings: UBE injected thirty minutes before carrageenan; swelling after 3 hours versus prior to carrageenan; FIG. 1
Description: Male CD1 mice were intravenously (i.v.) injected with the indicated doses of the UBE polypeptide having the sequence […] (SEQ ID NO:2). Thirty minutes thereafter, each animal was injected with carrageenan (50 μl of 3 mg/ml into each hindpaw). The animals were evaluated for the difference between the degree of swelling (mm) after 3 hours and prior to carrageenan injection.

[2] = system: female MRL/lpr mice; experiment: Spontaneous lupus-like syndrome in MRL/lpr mice (Systemic Lupus Erythematosus model); format: in vivo
Description: MRL/lpr mice develop a lupus-like syndrome spontaneously. UBE (SEQ ID NO:2) (1 μg/kg) was administered to female MRL/lpr mice thrice a week, starting at age of 12 weeks. Urine was obtained by spontaneous urination and the levels of protein (mg/dl) and erythrocytes (cells/dl) in the urine were evaluated throughout the treatment period (4 weeks) using commercial sticks.
In order to determine the levels of anti-dsDNA antibodies, blood was obtained by cardiac puncture of the MRL/lpr mice after 4 weeks of UBE treatment, and the serum levels of anti-dsDNA antibodies were evaluated using a commercial ELISA kit.
Serum levels of anti-dsDNA antibodies were determined by ELISA with the aid of a commercial kit (Euroimmun, Lubeck, Germany) following the manufacturer's instructions and detection antibodies were purchased for use with same (Bethyl Laboratories, Montgomery, Tex., USA).
Quantitative histopathology analysis of the kidneys was also performed. The kidneys of the mice after 4 weeks of UBE treatment were removed, fixed in formalin, sliced, and stained by H&E and by periodic acid […] stain. Representative histophathologies of the glomeruli and tubulointerstitial areas in control versus UBE treated mice is shown FIGS. 7C and 7D, versus 7E and 7F at 2× and 20×, respectively. The quantitative histopathology analysis is presented in FIG. 7A and FIG. 7B, respectively.
To evaluate the effect of UBE on lymphocyte function in MRL/lpr mice, peripheral lymph nodes and spleen cells were isolated from the control and UBE-treated mice and subjected to FACS analysis probing for CD4, CD8 and B220 marker expression (FIG. 8). Peripheral lymph node cells were positively selected for CD3 expression and the percent of CD3+ cells, which were negative for CD4− and CD8− expression was evaluated. Representative results from control and UBE treated animals are shown in FIGS. 8A and 8B, respectively. […] Spleen cells were similarly evaluated and representative results from control and UBE treated animals are shown in FIGS. 8C and 8D, respectively.
In parallel, peripheral lymph node cells were positively selected for B220+ expression. Representative results from control and UBE treated animals are shown in FIGS. 8G and 8H, respectively. […] Spleen cells were similarly evaluated and representative results from control and UBE treated animals are shown in FIGS. 8I and 8J, respectively.

[3] = system: T-lymphocytes; experiment: Lymphocyte proliferation in vitro (viable cell count, trypan blue); format: cell-based, female C57B1/6 mice; settings: 96 hours incubation; FIG. 17
Description: T-lymphocytes were harvested from lymph nodes of female C57B1/6 mice by standard methodology and seeded (1.3×10^6 cells/ml) in 96 well plate […]. Thereafter, UBE was added to the culture at the indicated concentrations and incubated for 96 hours (6% CO2, 37° C.). The medium containing the polypeptide was replaced after 48 hours of incubation. Viable cells (trypan blue staining) were counted a light microscope.

[4] = system: peritoneal macrophages; experiment: Oxidative burst of peritoneal macrophages (luminol luminescence, phorbol myristate acetate); format: cell-based, female C57BL/6 mice; settings: 1 μg/ml UBE; FIG. 19
Description: Macrophages were harvested by peritoneal lavage of female C57BL/6 mice i.p. injected with thioglycolate. 0.2 ml cells (3×10^5/ml), luminol (200 μM), horseradish peroxidase (1.0 unit/ml) and UBE were suspended in Hank's balanced salt solution (HBSS) (final concentrations of the peptide in the reaction mixture are indicated in the figure). The reaction started by the addition of 1 μM phorbol myristate acetate. The reaction was performed in a 96-well plate. Luminescence was measured by Tecan spectrofluoro Plus.

[5] = system: mice; experiment: LPS induced sepsis in mice, second protocol, UBE i.p.; format: in vivo; settings: for survival of the mice treated: repeated after 24 hours, 50 hours post LPS injection, FIG. 20A
Description: In a second protocol, mice were injected i.p. with LPS (dissolved in saline solution) at a dose of 1.2 mg/mouse, followed by i.p. injection of UBE at a dose of 1.0 or 10.0 μg/kg after 30 minutes. UBE treatment was repeated after 24 hours (n=4 for UBE-treated groups and n=5 for controls).

[6] = system: Female Balb/C mice; experiment: Ovalbumin-induced asthma in mice, eosinophils in bronchoalveolar lavage; format: in vivo; settings: UBE i.n. 50 ng/mouse on days 24 and 27, one hour before OVA; day 29; FIG. 21
Description: 20 ul of 5% Ovalbumin (OVA) was added to 8.75 ml of sterile saline, which was then added stepwise to a solution of 1.25 ml of 40 mg/ml ImjectAlum (Pierce), and subjected to rocking at room temperature for 30-60 minutes, to facilitate optimal alum absorption to the Ovalbumin (Alum/Ova). Female Balb/C mice were then injected with 200 ul of Alum/Ova i.p, according to the following protocol:
On Days 0 and 14, mice were injected i.p with OVA/Alum.
On day 24 mice were injected intranasally (i.n.) with. UBE/saline (50 ng/50 μl/mouse, 25 μl to each nostril) and then after one hour, mice were injected i.n with OVA (50 μg/50 μl/mouse, 25 μl to each nostril).
On Day 27, mice were injected i.n. UBE/saline (50 ng/50 μl/mouse, 25 μl to each nostril) and then 1 hour subsequently were again injected i.n. with OVA (50 μg/50 μl/mouse). Mice were then sacrificed on day 29, and bronchoalveolar fluid was obtained by lung lavage (1 ml of 10% FCS-heat inactivated in PBS), and the percent of eosinophils seen in lavage fluid versus white cell count was ascertained by microscopic evaluation of smears.

[7] = system: Female NZBW/F1 mice; experiment: Spontaneous lupus-like syndrome in NZBW/F1 mice (second SLE model); format: in vivo; settings: FIG. 11B
[8] = after 4 weeks of UBE treatment, 1 μg/kg, FIG. 7

SMPPIVRFDHPFLFIIFEEHTQSPLFVGKVVDPTHK (listed as Mus musculus) [UBE, 36-mer peptide corresponding to residues 378-413 of Mus musculus alpha-1-antitrypsin (serpin a1c)]
carrageenan-induced inflammation (hind paw swelling) [1]: significant reduction
proteinuria (urinary protein) ([2]; 1 μg/kg thrice a week from age of 12 weeks, 4 weeks, FIG. 4): significant reduction
urinary microhematuria ([2]; 1 μg/kg thrice a week from age of 12 weeks, 4 weeks, FIG. 5): significant reduction
anti-dsDNA antibodies in the blood (serum, ELISA) ([2]; after 4 weeks of UBE treatment, 1 μg/kg, FIG. 6): significant reduction
pathological score of the glomeruli (kidney histopathology) [2, 8]: significant reduction
pathological score of the tubulointerstitial areas (kidney histopathology) [2, 8]: significant reduction
percent of B220+ cells, FACS ([2]; peripheral lymph nodes): dramatically reduced
double negative CD4−CD8− cells (expressed as percent CD3+), FACS ([2]; peripheral lymph nodes, FIG. 8E): dramatically reduced
percent of B220+ cells, FACS ([2]; spleen cells): dramatically reduced
double negative CD4−CD8− cells, FACS ([2]; spleen cells, FIG. 8F): dramatically reduced
concentration of maximal effect on T cell proliferation [3]: 1 ng/mL
oxidative burst of peritoneal macrophages (luminescence) [4]: suppressed
survival of the mice treated ([5]; UBE 1.0 μg/kg i.p. 30 minutes after LPS): approximately 50%
survival of the mice treated ([5]; UBE 10 μg/kg i.p. 30 minutes after LPS): approximately 50%
survival time as compared to controls ([5]; both UBE dosages (1.0 and 10 μg/kg i.p.)): significantly prolonged survival
eosinophil concentration in lavage fluid (percent of eosinophils versus white cell count) [6]: dramatic reduction
proteinuria ([7]; UBE 1 μg/kg): reduced proteinuria in a significant manner
proteinuria ([7]; UBE 3 μg/kg): reduced proteinuria in a significant manner
